Reference: patent publication US8815321B2, “Geranylamine derivatives as flavouring agents” (Givaudan S.A., priority 2009, dated 2014)

Key:
Type in all cases: in vivo, human
umami-taste [1] = experiment: Sensory panel tasting of 0.3% NaCl solution; settings: Solution B: 0.3% NaCl and 10 ppm geranyl lactamide; trained sensory panel of 20 women; Solution A (0.3% NaCl only): salty
Experimental: Two solutions were prepared: A a solution of 0.3% NaCl B a solution of 0.3% NaCl and 10 ppm geranyl lactamide The samples were tasted by a trained sensory panel composed of 20 women aged between 30 and 60.

umami-taste [2] = experiment: Sensory panel tasting of 0.3% NaCl and 0.03% MSG solution; settings: Solution B: 0.3% NaCl, 0.03% MSG and 10 ppm geranyl lactamide, trained sensory panel of 20 women, Solution A without compound: salty
Experimental: Two solutions were prepared: A a solution of 0.3% NaCl and 0.03% MSG B a solution of 0.3% NaCl, 0.03% MSG and 10 ppm geranyl lactamide The samples were tasted by a trained sensory panel composed of 20 women aged between 30 and 60.

umami-taste [3] = experiment: Flavourist tasting of tomato soup; settings: tomato soup containing 15 ppm geranyl lactamide; flavourists (2 male, 2 female)
Experimental: A tomato soup mix was prepared from 9.4 g of sodium chloride, 1 g of mono sodium glutamate, 0.08 g ribonucleotides (ex yeast), 32 g of tomato powder (ex […]), 25.1 g of glucose, 21 g of starch (Ultrasperse 5 ex National Starch), 5 g of palm fat powder, 3 g of yeast powder, 1 g of onion powder, 0.15 g of carrot powder, 0.05 g of ground white pepper, 0.3 g of celery extract powder, 0.05 g of ground laurel leaf powder, and 1.85 g of sucrose. 25 G of the well mixed ingredients was added to 250 g of boiling water and stirred until completely dissolved. The reference soup was compared with a batch of the same soup containing 15 ppm of geranyl lactamide.

umami-taste [4] = experiment: Sensory panel tasting of flavoured potato chips; settings: for taste description of potato chips: trained sensory panel of 20 women
Experimental: Plain potato chips were prepared. One part was flavoured with 1.2% sodium chloride (sample A) One part was flavoured with 1.2% sodium chloride and 0.3% mono sodium glutamate (sample b) One part was flavoured with 1.2% sodium chloride and 25 ppm geranyl lactamide (sample C). The samples were tasted by a trained sensory panel composed of 20 women aged between 30 and 60.

umami-taste [5] = experiment: Flavourist tasting of tomato ketchup; settings: tomato ketchup with 20 ppm geranyl lactamide; flavourists (2 male, 2 female)
Experimental: A tomato ketchup was prepared from 19% tomato paste (28-30% dry weight), 8% of vinegar (15%), 3% of sodium chloride, 20% of sugar and 50% of water. To one half of the batch was added 20 ppm of geranyl lactamide.

SMILES	taste description (findings of the panel) (umami-taste [1])	taste description (findings of the panel) (umami-taste [2])	taste of test soup compared with reference soup (umami-taste [3])	panel preference among potato chip samples (umami-taste [4]; sample C (1.2% sodium chloride and 25 ppm geranyl lactamide) vs sample A (NaCl) and sample B (NaCl and 0.3% MSG))	taste description of potato chips (umami-taste [4]; sample C: 1.2% sodium chloride and 25 ppm geranyl lactamide)	taste of test ketchup compared with base ketchup (umami-taste [5])	taste description of potato chips (umami-taste [4]; sample B: 1.2% sodium chloride and 0.3% mono sodium glutamate)
CC(C)=CCC/C(C)=C/CNC(=O)C(C)O (stereo not shown) [geranyl lactamide]	salty, umami	salty, umami, more bouillon-like, more complex, less sweet	more umami, had a long-lasting savoury aspect, was more salty and was more complex than the base soup	preferred over the other two samples	salty, umami, long lasting, savoury, bouillon	clearly more umami, more salty and had a pleasant savoury note	–
N[C@@H](CCC(=O)O)C(=O)[O-].[Na+] [mono sodium glutamate, reference compound]	–	–	–	–	–	–	salty and umami
